Laboratory results reported in US20080146599A1, “Pyrimidine Compounds Having Tie-2 (Tek) Inhibitory Activity” (ASTRAZENECA AB, priority 2005, published 2008).
Where two headings read alike, the source gives them in different places.

Legend:
[1] = molecular target: T1, Tie2 receptor tyrosine kinase (Homo sapiens, UniProt Q02763); assay: In vitro receptor tyrosine kinase inhibition assay (ELISA based microtitre plate assay); assay type: biochemical; details: recombinant human Tie2 kinase domain lysate, ATP 5 micromolar or Km; read-out: IC50 (μM) Test (a): Inhibition of Tie2 receptor tyrosine kinase in vitro
T1 construct: consist of only the intracellular portion C-terminal portion of the respective receptor, within which is found the kinase domain; made in house; host or cells: baculovirus/Sf21 insect cells (or alternative equivalent); cleared lysate used, not purified protein
Protocol: Constitutive kinase activity of these recombinant proteins was determined by their ability to phosphorylate a synthetic peptide (made up of a random co-polymer of Glutamic Acid, Alanine and Tyrosine in the ratio of 6:3:1). […] Plates were washed in 50 mM HEPES pH 7.4 at room temperature to remove any excess unbound synthetic peptide.
The immobilised phospho-peptide product of the reaction was detected by immunological methods.
Kinase inhibition for a given compound was expressed as an IC50 value. […] The range of phosphorylation was calculated from the positive (vehicle plus ATP) and negative (vehicle minus ATP) control values.

[2] = molecular target: T2, Tie2 receptor (Homo sapiens, UniProt Q02763); assay: Cellular Tie2 autophosphorylation assay (Ang1 ligand stimulated); assay type: cell-based
T2 construct: one can use natural cell lines or primary cells which are known to express the receptor of choice; endogenous in cells; host or cells: EA.hy926/B3 cells

[3] = whole cells, for example EA.hy926/B3, Ang1 ligand stimulated, read-out: IC50 (μM) Test (b): Inhibition of autophosphorylation of Tie2 receptor tyrosine kinase

T2 sequence (Q02763 23-1124): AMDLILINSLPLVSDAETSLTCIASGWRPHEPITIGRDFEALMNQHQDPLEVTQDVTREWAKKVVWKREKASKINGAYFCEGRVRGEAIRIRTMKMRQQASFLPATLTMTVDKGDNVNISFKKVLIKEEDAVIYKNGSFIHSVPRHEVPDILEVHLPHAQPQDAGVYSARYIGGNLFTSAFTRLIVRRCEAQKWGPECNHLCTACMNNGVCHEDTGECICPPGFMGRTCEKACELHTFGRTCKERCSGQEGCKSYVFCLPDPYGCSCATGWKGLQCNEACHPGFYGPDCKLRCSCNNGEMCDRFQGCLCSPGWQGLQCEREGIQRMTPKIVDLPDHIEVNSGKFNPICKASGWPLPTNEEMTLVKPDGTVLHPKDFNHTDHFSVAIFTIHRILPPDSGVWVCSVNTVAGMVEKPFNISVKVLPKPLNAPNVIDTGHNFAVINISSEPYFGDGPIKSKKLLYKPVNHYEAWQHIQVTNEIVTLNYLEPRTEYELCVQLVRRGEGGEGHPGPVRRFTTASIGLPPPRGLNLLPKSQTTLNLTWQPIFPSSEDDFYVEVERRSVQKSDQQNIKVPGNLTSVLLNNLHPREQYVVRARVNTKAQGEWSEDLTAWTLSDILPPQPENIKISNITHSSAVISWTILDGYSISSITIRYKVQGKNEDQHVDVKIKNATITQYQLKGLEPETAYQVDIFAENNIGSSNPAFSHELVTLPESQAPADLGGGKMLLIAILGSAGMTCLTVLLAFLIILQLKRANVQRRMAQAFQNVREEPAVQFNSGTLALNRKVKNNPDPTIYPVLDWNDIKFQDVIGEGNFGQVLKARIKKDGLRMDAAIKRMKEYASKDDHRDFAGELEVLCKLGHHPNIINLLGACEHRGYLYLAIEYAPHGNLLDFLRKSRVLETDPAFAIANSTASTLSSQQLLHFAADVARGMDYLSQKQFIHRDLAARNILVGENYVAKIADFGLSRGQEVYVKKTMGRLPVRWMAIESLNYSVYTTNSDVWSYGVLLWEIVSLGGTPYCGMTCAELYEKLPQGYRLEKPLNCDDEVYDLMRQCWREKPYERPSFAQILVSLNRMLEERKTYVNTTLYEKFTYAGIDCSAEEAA
T1 sequence (Q02763 770-1124 limits assumed): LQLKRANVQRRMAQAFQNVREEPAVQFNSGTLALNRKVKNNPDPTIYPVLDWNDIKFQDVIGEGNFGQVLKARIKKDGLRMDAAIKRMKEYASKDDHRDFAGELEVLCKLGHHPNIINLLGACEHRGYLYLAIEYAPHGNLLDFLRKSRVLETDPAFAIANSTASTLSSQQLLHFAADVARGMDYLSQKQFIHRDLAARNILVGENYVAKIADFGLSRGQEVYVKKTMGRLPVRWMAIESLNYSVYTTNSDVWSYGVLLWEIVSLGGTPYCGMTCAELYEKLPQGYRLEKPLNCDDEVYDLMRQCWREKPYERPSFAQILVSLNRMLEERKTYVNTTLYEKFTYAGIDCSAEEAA

| IC50 [1] | IC50 [2, 3] | Compound | IC50 [2] |
| --- | --- | --- | --- |
| 7.5 µM | 0.78 µM | Nc1ncnc(N)c1C#Cc1cccc(NS(=O)(=O)c2ccccc2Cl)c1 [Example 1, 2-chloro-N-{3-[(4,6-diaminopyrimidin-5-yl)ethynyl]phenyl}benzenesulfonamide] | – |
| 0.4 µM | 0.34 µM | Nc1ncnc(N)c1C#Cc1cccc(NS(=O)(=O)c2cc(F)ccc2F)c1 [Example 6, N-{3-[(4,6-diaminopyrimidin-5-yl)ethynyl]phenyl}-2,5-difluorobenzenesulfonamide] | – |

| Compound | IC50 [1] | IC50 [2, 3] | IC50 [2] |
| --- | --- | --- | --- |
| Nc1ncnc(N)c1C#Cc1cccc(NS(=O)(=O)c2cccc(Cl)c2Cl)c1 [Example 3, 2,3-dichloro-N-{3-[(4,6-diaminopyrimidin-5-yl)ethynyl]phenyl}benzenesulfonamide] | 3.7 µM | – | 0.29 µM |
